In patent US20190167611A1, “METHODS OF TREATING OR PREVENTING AMYLOID RELATED IMAGING ABNORMALITIES ASSOCIATED WITH ALZHEIMER'S DISEASE TREATMENT” (BIOGEN CHESAPEAKE LLC, priority 2016, published 2019):

Tests used:
[1] = human, in vivo
Method: The two groups are referred to as the 0.4 mg/day group and the 3.0 mg/day group, respectively.

[2] = system: Alzheimer's disease patients who present with clinically significant ARIA; test: Clinical trial of glyburide plus standard of care versus placebo in Alzheimer's disease patients with clinically significant ARIA; type: in vivo, human; settings: glyburide 0.5-3.0 mg/day, several routes
Method: In one arm, glyburide is administered as a bolus followed by continuous infusion. In a second arm, glyburide is administered via a transdermal patch or gel. In a third arm, glyburide is administered via injection. In a fourth arm, glyburide is administered orally. […] Total treatment duration will be a minimum of 72 hours and will continue as needed until acute brain edema has stabilized. […] Plasma levels of glyburide are determined daily or weekly. Each patient is monitored via blood sampling and MRI. Magnetic resonance imaging scans monitor patients for amyloid-related imaging abnormalities and progression of edema and/or associated hemorrhage. FLAIR sequences are evaluated for the presence of ARIA. A 4-point scale is used to assess presence of ARIA. The percentages of patients with ARIA are compared between treatment groups and placebo group.

## COc1ccc(Cl)cc1C(=O)NCCc1ccc(S(=O)(=O)NC(=O)NC2CCCCC2)cc1 [glyburide]
[1]
  Dose dependence of pharmacokinetics: dose-independent pharmacokinetics
[2]
  ARIA compared with the control group: significantly reduced or inhibited
  Brain edema compared with the control group: reduced brain edema
  Functional recovery compared with the control group: improved functional recovery
  Hemorrhage volume compared with the control group: reduced hemorrhage volume

## COc1ccc(Cl)cc1C(=O)NCCc1ccc(S(=O)(=O)NC(=O)NC2CCC(O)CC2)cc1 (stereo not shown) [M1]
[1]
  Metabolite exposure in relation to the administered dose of RP-1127: approximately proportional

## COc1ccc(Cl)cc1C(=O)NCCc1ccc(S(=O)(=O)NC(=O)N[C@@H]2CCC[C@H](O)C2)cc1 [M2]
[1]
  Metabolite exposure in relation to the administered dose of RP-1127: approximately proportional
